From patent US11649237B2, “Substituted imidazo[1,5-a]pyrazines for IRE1 inhibition” (Optikira LLC, priority 2017, dated 2023)

The compounds below were run on XBP-1 splicing in ARPE-19 cells or apoptosis of INS-1 cells expressing mIRE-1 (assay: Cellular assay (XBP1 splicing assay or apoptosis assay)). Conditions: data are for the XBP1 splicing assay or the apoptosis assay (not specified per compound).
Assay type: cell-based
Description: ARPE-19 cells stably expressing XBP-1 (a.a. 1-376) with nano-luciferase gene sequence linked so it is in frame when XBP-1 is spliced, were cultured in F12 media, 10% FBS, 0.044% sodium bicarbonate, 150 μg/ml hygromycin B and seeded for assays at 5,000 cells in 384 well plates in culture media without hygromycin B and incubated at 37° C./5% CO2. […] After further incubation of 30 minutes thapsigargin was added (final concentration 150 nM) and then another 4 hour incubation. A NanoLuc luciferase assay (Promega) was used according to the manufacturer's instructions to detect the luciferase and luminescence measured on a luminometer (EnVision, PerkinElmer).
Doxycycline (final concentration 100 nM) was added and plates incubated for a further 72 hours. To determine the proportion of apoptotic cells Hoechst 33342 (final concentration 10 μg/mL) was added, then after 30 minutes incubation cells imaged and analyzed on an InCell high content imager.

Structure (SMILES) | IC50 [nM]
CNC1CC=C(c2cnc(N)c3c(-c4ccc(NC(=O)Nc5cncc(OC)c5)cc4F)nc(C(C)C)n23)CC1 (stereo not drawn) [Example 148, 1-(4-(8-amino-3-isopropyl-5-(4-(methylamino)cyclohex-1-en-1-yl)imidazo[1,5-a]pyrazin-1-yl)-3-fluorophenyl)-3-(5-methoxypyridin-3-yl)urea] | 1300
CNC1CC=C(c2cnc(N)c3c(-c4ccc(NC(=O)Nc5cncc(F)c5)cc4F)nc(C(C)C)n23)CC1 (stereo not drawn) [Example 149, 1-(4-(8-amino-3-isopropyl-5-(4-(methylamino)cyclohex-1-en-1-yl)imidazo[1,5-a]pyrazin-1-yl)-3-fluorophenyl)-3-(5-fluoropyridin-3-yl)urea] | 780
CNC1CC=C(c2cnc(N)c3c(-c4ccc(NC(=O)Nc5ccsc5)c5ccccc45)nc(C(C)C)n23)CC1 (stereo not drawn) [Example 150, 1-(4-(8-amino-3-isopropyl-5-(4-(methylamino)cyclohex-1-en-1-yl)imidazo[1,5-a]pyrazin-1-yl)naphthalen-1-yl)-3-(thiophen-3-yl)urea] | 90
CNC1CC=C(c2cnc(N)c3c(-c4ccc(NC(=O)Nc5cc(F)cc(F)c5)c5ccccc45)nc(C(C)C)n23)CC1 (stereo not drawn) [Example 151, 1-(4-(8-amino-3-isopropyl-5-(4-(methylamino)cyclohex-1-en-1-yl)imidazo[1,5-a]pyrazin-1-yl)naphthalen-1-yl)-3-(3,5-difluorophenyl)urea] | 60
CNC1CC=C(c2cnc(N)c3c(-c4ccc(NC(=O)Nc5ccccc5F)c5ccccc45)nc(C(C)C)n23)CC1 (stereo not drawn) [Example 152, 1-(4-(8-amino-3-isopropyl-5-(4-(methylamino)cyclohex-1-en-1-yl)imidazo[1,5-a]pyrazin-1-yl)naphthalen-1-yl)-3-(2-fluorophenyl)urea] | 100
CNC1CC=C(c2cncc3c(-c4ccc(NC(=O)Nc5ccccc5)c5ccccc45)nc(C(C)C)n23)CC1 (stereo not drawn) [Example 155, 1-(4-(3-isopropyl-5-(4-(methylamino)cyclohex-1-en-1-yl)imidazo[1,5-a]pyrazin-1-yl)naphthalen-1-yl)-3-phenylurea] | 640
CNC1CC=C(c2cnc(N)c3c(-c4ccc(Cc5nc6cccc(C)c6[nH]5)c5ccccc45)nc(C(C)C)n23)CC1 (stereo not drawn) [Example 156, 3-Isopropyl-1-(4-((7-methyl-1H-benzo[d]imidazol-2-yl)methyl)naphthalen-1-yl)-5-(4-(methylamino)cyclohex-1-en-1-yl)imidazo[1,5-a]pyrazin-8-amine] | 16
CNC1CC=C(c2cnc(N)c3c(-c4ccc(Cc5ncc(-c6ccccc6)[nH]5)c5ccccc45)nc(C(C)C)n23)CC1 (stereo not drawn) [Example 168, 3-Isopropyl-5-(4-(methylamino)cyclohex-1-en-1-yl)-1-(4-((5-phenyl-1H-imidazol-2-yl)methyl)naphthalen-1-yl)imidazo[1,5-a]pyrazin-8-amine] | 96
CNC1CC=C(c2cnc(N)c3c(-c4ccc(NS(=O)(=O)Cc5ccccc5Cl)c(F)c4)nc(C(C)C)n23)CC1 (stereo not drawn) [Example 169, N-(4-(8-Amino-3-isopropyl-5-(4-(methylamino)cyclohex-1-en-1-yl)imidazo[1,5-a]pyrazin-1-yl)-2-fluorophenyl)-1-(2-chlorophenyl)methanesulfonamide] | 31
CNC1CC=C(c2cnc(N)c3c(-c4ccc(NS(=O)(=O)c5cc(C)ccc5F)c5ccccc45)nc(C(C)C)n23)CC1 (stereo not drawn) [Example 185, N-(4-(8-amino-3-isopropyl-5-(4-(methylamino)cyclohex-1-en-1-yl)imidazo[1,5-a]pyrazin-1-yl)naphthalen-1-yl)-2-fluoro-5-methylbenzenesulfonamide] | 210
CNC1CC=C(c2cnc(N)c3c(-c4ccc(NS(=O)(=O)c5cc(Cl)ccc5Cl)cc4F)nc(C(C)C)n23)CC1 (stereo not drawn) [Example 195, N-(4-(8-amino-3-isopropyl-5-(4-(methylamino)cyclohex-1-en-1-yl)imidazo[1,5-a]pyrazin-1-yl)-3-fluorophenyl)-2,5-dichlorobenzenesulfonamide] | 66
CNC1CC=C(c2cnc(N)c3c(-c4ccc(NS(=O)(=O)c5cc(C)ccc5F)c(F)c4)nc(C(C)C)n23)CC1 (stereo not drawn) [Example 218, N-(4-{8-amino-5-[4-(methylamino)cyclohex-1-en-1-yl]-3-(propan-2-yl)imidazo[1,5-a]pyrazin-1-yl}-2-fluorophenyl)-2-fluoro-5-methylbenzene-1-sulfonamide] | 25
CNC1CC=C(c2cnc(N)c3c(-c4ccc(NS(=O)(=O)c5cc(C)ccc5Cl)c5ccccc45)nc(C(C)C)n23)CC1 (stereo not drawn) [Example 219, N-(4-{8-amino-5-[4-(methylamino)cyclohex-1-en-1-yl]-3-(propan-2-yl)imidazo[1,5-a]pyrazin-1-yl}naphthalen-1-yl)-2-chloro-5-methylbenzene-1-sulfonamide] | 20
CC(C)c1nc(-c2ccc(NS(=O)(=O)Cc3ccccc3Cl)c(F)c2)c2c(N)ncc(C3=CCC(NCCF)CC3)n12 (stereo not drawn) [Example 220, N-(4-(8-amino-5-(4-((2-fluoroethyl)amino)cyclohex-1-en-1-yl)-3-isopropylimidazo[1,5-a]pyrazin-1-yl)-2-fluorophenyl)-1-(2-chlorophenyl) methanesulfonamide] | 50
CC(C)c1nc(-c2ccc(NS(=O)(=O)Cc3ccccc3Cl)c(F)c2)c2c(N)ncc(C3=CCC(O)CC3)n12 (stereo not drawn) [Example 224, N-(4-(8-amino-5-(4-hydroxycyclohex-1-en-1-yl)-3-isopropylimidazo[1,5-a]pyrazin-1-yl)-2-fluorophenyl)-1-(2-chlorophenyl)methanesulfonamide] | 42
CC(C)c1nc(-c2ccc(NS(=O)(=O)c3ccccc3Cl)c(F)c2)c2c(N)ncc(C3=CCC(O)CC3)n12 (stereo not drawn) [Example 225, N-(4-(8-amino-5-(4-hydroxycyclohex-1-en-1-yl)-3-isopropylimidazo[1,5-a]pyrazin-1-yl)-2-fluorophenyl)-2-chlorobenzenesulfonamide] | 250
CC(C)c1nc(-c2ccc(NS(=O)(=O)c3ccccc3Cl)c(F)c2)c2c(N)ncc(C3=CCC(NCC(F)F)CC3)n12 (stereo not drawn) [Example 226, N-(4-(8-amino-5-(4-((2,2-difluoroethyl)amino)cyclohex-1-en-1-yl)-3-isopropylimidazo[1,5-a]pyrazin-1-yl)-2-fluorophenyl)-2-chlorobenzenesulfonamide] | 330
CC(C)c1nc(-c2ccc(NS(=O)(=O)Cc3ccccc3Cl)c(F)c2)c2c(N)ncc(C3=CCC(NC4COC4)CC3)n12 (stereo not drawn) [Example 227, N-(4-(8-amino-3-isopropyl-5-(4-(oxetan-3-ylamino)cyclohex-1-en-1-yl)imidazo[1,5-a]pyrazin-1-yl)-2-fluorophenyl)-1-(2-chlorophenyl)methanesulfonamide] | 87
CC(C)c1nc(-c2cc(F)c(NS(=O)(=O)c3ccccc3Cl)cc2F)c2c(N)ncc(C3=CCC(NCCF)CC3)n12 (stereo not drawn) [Example 228, N-(4-(8-amino-5-(4-((2-fluoroethyl)amino)cyclohex-1-en-1-yl)-3-isopropylimidazo[1,5-a]pyrazin-1-yl)-2,5-difluorophenyl)-2-chlorobenzenesulfonamide] | 10
CC(C)c1nc(-c2ccc(NS(=O)(=O)c3ccccc3F)c(F)c2)c2c(N)ncc(C3=CCC(NCCF)CC3)n12 (stereo not drawn) [Example 229, N-(4-(8-amino-5-(4-((2-fluoroethyl)amino)cyclohex-1-en-1-yl)-3-isopropylimidazo[1,5-a]pyrazin-1-yl)-2-fluorophenyl)-2-fluorobenzenesulfonamide] | 25
CC(C)c1nc(-c2ccc(NS(=O)(=O)c3ccccc3Cl)c(F)c2)c2c(N)ncc(C3=CCC(N(C)CCF)CC3)n12 (stereo not drawn) [Example 230, N-(4-(8-amino-5-(4-((2-fluoroethyl)(methyl)amino)cyclohex-1-en-1-yl)-3-isopropylimidazo[1,5-a]pyrazin-1-yl)-2-fluorophenyl)-2-chlorobenzenesulfonamide] | 19
Cc1nc(-c2ccc(NS(=O)(=O)c3ccccc3Cl)c(F)c2)c2c(N)ncc(C3=CCC(NCCF)CC3)n12 (stereo not drawn) [Example 231, N-(4-(8-amino-5-(4-((2-fluoroethyl)amino)cyclohex-1-en-1-yl)-3-methylimidazo[1,5-a]pyrazin-1-yl)-2-fluorophenyl)-2-chlorobenzenesulfonamide] | 19
CC(C)c1nc(-c2ccc(NS(=O)(=O)c3ccccc3Cl)c(F)c2)c2c(N)ncc(C3=CCC(NC4COC4)CC3)n12 (stereo not drawn) [Example 232, N-(4-(8-amino-3-isopropyl-5-(4-(oxetan-3-ylamino)cyclohex-1-en-1-yl)imidazo[1,5-a]pyrazin-1-yl)-2-fluorophenyl)-2-chlorobenzenesulfonamide] | 200

These compounds were tested against IRE1α RNase (Homo sapiens (Human), UniProt O75460) (assay: Biochemical assay, inhibition of RNase activity of IRE1α). Conditions: not given.
IRE1α RNase, sequence (O75460 468-977): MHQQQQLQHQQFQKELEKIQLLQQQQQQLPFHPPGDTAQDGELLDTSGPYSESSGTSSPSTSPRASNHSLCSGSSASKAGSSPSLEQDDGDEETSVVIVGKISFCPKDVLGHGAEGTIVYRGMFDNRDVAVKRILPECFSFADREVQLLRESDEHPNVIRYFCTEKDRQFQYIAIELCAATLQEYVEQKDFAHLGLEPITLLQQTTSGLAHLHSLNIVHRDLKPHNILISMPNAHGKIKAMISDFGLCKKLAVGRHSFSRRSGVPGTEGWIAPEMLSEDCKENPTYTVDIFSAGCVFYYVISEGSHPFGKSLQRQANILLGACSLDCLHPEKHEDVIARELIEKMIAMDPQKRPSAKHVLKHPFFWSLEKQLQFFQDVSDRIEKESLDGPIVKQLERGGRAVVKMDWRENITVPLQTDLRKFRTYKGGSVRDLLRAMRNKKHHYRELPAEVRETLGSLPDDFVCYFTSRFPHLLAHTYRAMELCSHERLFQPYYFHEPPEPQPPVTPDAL

Structure (SMILES) | IC50 [nM]
CC(C)c1nc(-c2ccc(NS(=O)(=O)c3ccccc3Cl)c(F)c2)c2c(N)ncc(C3=CCC(NCC(F)F)CC3)n12 (stereo not drawn) [Example 226, N-(4-(8-amino-5-(4-((2,2-difluoroethyl)amino)cyclohex-1-en-1-yl)-3-isopropylimidazo[1,5-a]pyrazin-1-yl)-2-fluorophenyl)-2-chlorobenzenesulfonamide] | 213
CC(C)c1nc(-c2cc(F)c(NS(=O)(=O)c3ccccc3Cl)cc2F)c2c(N)ncc(C3=CCC(NCCF)CC3)n12 (stereo not drawn) [Example 228, N-(4-(8-amino-5-(4-((2-fluoroethyl)amino)cyclohex-1-en-1-yl)-3-isopropylimidazo[1,5-a]pyrazin-1-yl)-2,5-difluorophenyl)-2-chlorobenzenesulfonamide] | 6
CC(C)c1nc(-c2ccc(NS(=O)(=O)c3ccccc3F)c(F)c2)c2c(N)ncc(C3=CCC(NCCF)CC3)n12 (stereo not drawn) [Example 229, N-(4-(8-amino-5-(4-((2-fluoroethyl)amino)cyclohex-1-en-1-yl)-3-isopropylimidazo[1,5-a]pyrazin-1-yl)-2-fluorophenyl)-2-fluorobenzenesulfonamide] | 25
CC(C)c1nc(-c2ccc(NS(=O)(=O)c3ccccc3Cl)c(F)c2)c2c(N)ncc(C3=CCC(NC4COC4)CC3)n12 (stereo not drawn) [Example 232, N-(4-(8-amino-3-isopropyl-5-(4-(oxetan-3-ylamino)cyclohex-1-en-1-yl)imidazo[1,5-a]pyrazin-1-yl)-2-fluorophenyl)-2-chlorobenzenesulfonamide] | 60
